EC50, IC50 and AC50 data for seven compounds are collected here from ChEMBL document CHEMBL1201862, “PubChem BioAssay data set” (2004).

Active and inactive are the calls of the source. Bounds are passed on as bounds.

For assay [1], the target named is Mitochondrial peptide methionine sulfoxide reductase (Bos taurus, UniProt P54149). The assay can be described thus: Absorbance-based biochemical high throughput dose response assay for activators of Methionine sulfoxide reductase A (MsrA). It counts as functional.
Assay [2] is described as follows: Counterscreen for activators of the function of SWI/SNF related, matrix associated, actin dependent regulator of chromatin, subfamily a, member 2 (SMARCA2, BRM): Luminescence-based cell-based high throughput dose response assay to identify non-selective compounds using the VP16 reporter assay. It counts as functional. In general terms: The purpose of a counterscreen is to sort out artefacts and off-target activity.

Assay [3] is described as follows: Fluorescence-based cell-based high throughput dose response assay for inhibitors of the interaction of nucleotide-binding oligomerization domain containing 2 (NOD2) and the receptor-interacting serine-threonine kinase 2 (RIPK2). It counts as functional. The conditions noted are these: Homo sapiens.
Another assay concerns the target Hexokinase (Trypanosoma brucei, UniProt Q38C41). In words: Confirmation assay for inhibitors of Trypanosoma brucei hexokinase 1-Analogue-first series. [Related pubchem assays (depositor defined):AID1430, AID1632, AID2516, AID2560, AID2579, AID2600, AID449725, AID492951]. It counts as functional.
The target in assay [4] is T1, Rac GTPase-activating protein 1 (Homo sapiens, UniProt Q9H0H5).
T1 sequence (Q9H0H5 whole entry): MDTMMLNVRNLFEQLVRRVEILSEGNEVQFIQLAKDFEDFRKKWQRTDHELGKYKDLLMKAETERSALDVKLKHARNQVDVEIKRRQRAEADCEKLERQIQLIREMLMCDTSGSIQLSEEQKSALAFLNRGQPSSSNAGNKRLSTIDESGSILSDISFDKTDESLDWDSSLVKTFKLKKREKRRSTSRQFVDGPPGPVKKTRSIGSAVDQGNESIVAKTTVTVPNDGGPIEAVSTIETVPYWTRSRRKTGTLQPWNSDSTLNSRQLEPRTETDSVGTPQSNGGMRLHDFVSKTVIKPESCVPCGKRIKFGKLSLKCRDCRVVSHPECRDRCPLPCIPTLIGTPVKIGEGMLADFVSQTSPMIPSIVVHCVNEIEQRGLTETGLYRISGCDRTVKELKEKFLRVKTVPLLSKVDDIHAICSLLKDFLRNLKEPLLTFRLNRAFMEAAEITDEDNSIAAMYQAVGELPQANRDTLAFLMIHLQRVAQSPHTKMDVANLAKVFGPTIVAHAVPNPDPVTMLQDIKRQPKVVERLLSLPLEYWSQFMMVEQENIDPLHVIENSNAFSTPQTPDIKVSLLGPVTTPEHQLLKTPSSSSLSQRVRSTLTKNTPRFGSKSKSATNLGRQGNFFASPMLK
The assay can be described thus: blockers of MgcRacGAP-driven Rac1 GTP hydrolysis – biochemical, ADP Hunter fluorescence, primary and confirmatory, confirmation (AID 624330). It counts as functional.

The target of assay [5] is Glucose-6-phosphate 1-dehydrogenase (Homo sapiens, UniProt P11413). In words: inhibition of Homo sapiens G6PD, dose series – biochemical, fluorescence, selectivity assay for P. falciparum G6PD inhibitor project, dose response (AID 504792). It counts as functional.
In a further assay the target is Beta Lactamase (Pseudomonas aeruginosa, UniProt Q932Y6). The assay can be described thus: BLA reporter interference, concentration series – BLA reporter cells, FRET fluorescence, artefact control for NOD2-RIPK2 interaction inhibitor project, dose response (AID 651552). It counts as functional, cell-based.
In assay [6] the target is SWI/SNF-related matrix-associated actin-dependent regulator of chromatin subfamily A member 2 (Homo sapiens, UniProt P51531). The assay can be described thus: Luminescence-based cell-based high throughput dose response assay to identify activators of the function of SWI/SNF related, matrix associated, actin dependent regulator of chromatin, subfamily a, member 2 (SMARCA2, BRM). It counts as functional.

Another assay concerns Jurkat. In words: SAR Analysis of small molecule inhibitors of T-cell specific antigen receptor-induced NF-kB activation in a Jurkat cell line using a luminescence assay - Set 2. [Related pubchem assays (depositor defined):AID435003, AID435012, AID465]. It counts as functional, cell-based. To be noted: Homo sapiens.
In assay [7] the test system is HEK293. The assay can be described thus: HEK293T cell viability loss, resazurin readout – resazurin fluorescence, cytotoxicity control for NF-kB activator project, SAR follow-up (AID 493251). It counts as functional, cell-based. The conditions noted are these: Homo sapiens. In general terms: Resazurin is reduced to fluorescent resorufin, in cell work by metabolically active cells.

Assay [8] concerns HEK293. The assay can be described thus: SAR Analysis of small molecule inhibitors of T-cell specific antigen receptor-induced NF-kB activation in a HEK-293T cell line using a luminescence assay - Set 2. [Related pubchem assays (depositor defined):AID435003, AID435012, AID489026]. It counts as functional, cell-based. To be noted: Homo sapiens.
Assay [9] is described as follows: cells. It counts as functional, cell-based.
The target in assay [10] is T2, Trace amine-associated receptor 1 (Homo sapiens, UniProt Q96RJ0).
T2 sequence (Q96RJ0 whole entry): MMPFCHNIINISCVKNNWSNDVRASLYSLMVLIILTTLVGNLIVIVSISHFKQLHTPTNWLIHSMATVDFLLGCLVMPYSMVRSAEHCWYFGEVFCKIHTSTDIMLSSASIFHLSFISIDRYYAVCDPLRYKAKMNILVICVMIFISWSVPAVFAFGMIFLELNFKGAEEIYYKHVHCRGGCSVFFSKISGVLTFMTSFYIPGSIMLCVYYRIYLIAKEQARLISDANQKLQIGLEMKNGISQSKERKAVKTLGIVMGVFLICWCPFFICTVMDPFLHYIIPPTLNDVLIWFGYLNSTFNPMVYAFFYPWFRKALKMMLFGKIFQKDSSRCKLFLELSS
The assay can be described thus: Fluorescence-based cell-based high throughput dose response assay to identify agonists of the human trace amine associated receptor 1 (TAAR1). It counts as functional.

Assay [11] addresses T2, Trace amine-associated receptor 1. The assay can be described thus: Counterscreen for agonists of the human trace amine associated receptor 1 (hTAAR1): Fluorescence-based cell-based high throughput dose response assay to identify hTAAR1 agonist that also desensitize TAAR1 receptor response. It counts as functional.
A short description of assay [12]: cells. It counts as functional, cell-based. The source holds these as a separate data set.
Another assay addresses Melanocortin receptor 4 (Homo sapiens, UniProt P32245). It counts as functional, cell-based.
Assay [13] can be described thus: general mammalian cell viability loss – inhibitor set, cherry-pick, set 2, cytotoxicity control for miR-122 modulator project, dose response (AID 720697). It counts as functional, cell-based.
Assay [14] is described as follows: activation of miR-122 Renilla sensor silencing – cell-based, Huh7 psiCHECK-miR122, Renilla luciferase, cherry-picked, dose response (AID 651956).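 Note: huh7 hepatoma cells stably carrying a psiCHECK-2 miR-122 sensor plasmid; renilla luciferase signal reporting endogenous miR-122 activity after 48 h compound exposure.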 It counts as functional.
Assay [15] can be described thus: general mammalian cell viability loss – activator set, cherry-pick, cytotoxicity control for miR-122 modulator project, dose response (AID 720690).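 Note: HEK293T human cells scored for general mammalian cytotoxicity.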 It counts as functional, cell-based.
Another assay deals with Vero. The assay can be described thus: viability loss in Vero cells – cell-based, plate reader, cherry-pick samples, cytotoxicity control, dose response (AID 687020). It counts as functional. To be noted: Chlorocebus sabaeus.
For assay [16], the target named is T3, Carboxy-terminal domain RNA polymerase II polypeptide A small phosphatase 1 (Homo sapiens, UniProt Q9GZU7).
T3 sequence (Q9GZU7 whole entry): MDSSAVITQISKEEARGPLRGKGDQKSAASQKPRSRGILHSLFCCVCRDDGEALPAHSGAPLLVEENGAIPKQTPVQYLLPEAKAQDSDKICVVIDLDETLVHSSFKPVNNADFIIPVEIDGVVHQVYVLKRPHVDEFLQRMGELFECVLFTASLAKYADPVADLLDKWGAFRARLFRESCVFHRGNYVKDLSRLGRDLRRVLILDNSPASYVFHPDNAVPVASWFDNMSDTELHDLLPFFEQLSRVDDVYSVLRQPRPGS
The assay can be described thus: CTDSP1 inhibitors, concentration-response, biochemical, absorbance readout, ultra-high-throughput screen actives (AID 540297). It counts as functional.

Assay [17] deals with T4, Low molecular weight phosphotyrosine protein phosphatase (Homo sapiens, UniProt P24666).
T4 sequence (P24666 whole entry): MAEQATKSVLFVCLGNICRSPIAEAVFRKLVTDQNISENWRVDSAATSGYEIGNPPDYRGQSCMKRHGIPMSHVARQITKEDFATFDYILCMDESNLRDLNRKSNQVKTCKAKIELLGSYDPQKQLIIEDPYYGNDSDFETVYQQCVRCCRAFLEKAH
It counts as functional. To be noted: read-out: IC50_Mean.

Assay [18] addresses T4, Low molecular weight phosphotyrosine protein phosphatase. It counts as functional. The conditions noted are these: read-out: IC50_Mean. The source holds these as a separate data set.

Sequence of Beta Lactamase (Q932Y6 whole entry): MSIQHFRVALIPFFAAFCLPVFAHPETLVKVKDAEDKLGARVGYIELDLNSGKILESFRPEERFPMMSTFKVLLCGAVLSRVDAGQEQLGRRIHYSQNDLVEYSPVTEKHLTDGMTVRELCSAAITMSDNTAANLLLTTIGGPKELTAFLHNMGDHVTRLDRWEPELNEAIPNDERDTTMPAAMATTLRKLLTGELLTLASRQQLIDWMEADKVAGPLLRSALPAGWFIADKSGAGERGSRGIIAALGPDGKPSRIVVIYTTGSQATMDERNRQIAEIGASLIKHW
Sequence of Hexokinase (Q38C41 whole entry): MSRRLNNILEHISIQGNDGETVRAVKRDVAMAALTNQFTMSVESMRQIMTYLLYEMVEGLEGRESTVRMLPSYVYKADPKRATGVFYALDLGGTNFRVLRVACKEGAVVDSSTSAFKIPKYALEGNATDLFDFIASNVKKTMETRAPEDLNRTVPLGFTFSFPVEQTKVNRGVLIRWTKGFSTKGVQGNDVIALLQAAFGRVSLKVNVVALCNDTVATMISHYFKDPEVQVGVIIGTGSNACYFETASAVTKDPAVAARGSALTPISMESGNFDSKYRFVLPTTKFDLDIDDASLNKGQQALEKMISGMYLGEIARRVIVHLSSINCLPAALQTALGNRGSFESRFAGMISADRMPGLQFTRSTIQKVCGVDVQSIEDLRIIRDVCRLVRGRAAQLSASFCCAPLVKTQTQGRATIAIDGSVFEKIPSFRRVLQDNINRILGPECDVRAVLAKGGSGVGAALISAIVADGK
Sequence of Mitochondrial peptide methionine sulfoxide reductase (P54149 whole entry): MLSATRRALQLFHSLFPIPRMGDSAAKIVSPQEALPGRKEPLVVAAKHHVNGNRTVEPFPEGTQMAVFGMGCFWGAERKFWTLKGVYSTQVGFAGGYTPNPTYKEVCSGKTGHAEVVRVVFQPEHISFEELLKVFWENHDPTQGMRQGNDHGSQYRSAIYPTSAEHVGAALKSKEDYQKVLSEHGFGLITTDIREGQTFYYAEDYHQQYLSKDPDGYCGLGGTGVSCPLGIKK
Sequence of SWI/SNF-related matrix-associated actin-dependent regulator of chromatin subfamily A member 2 (P51531 whole entry): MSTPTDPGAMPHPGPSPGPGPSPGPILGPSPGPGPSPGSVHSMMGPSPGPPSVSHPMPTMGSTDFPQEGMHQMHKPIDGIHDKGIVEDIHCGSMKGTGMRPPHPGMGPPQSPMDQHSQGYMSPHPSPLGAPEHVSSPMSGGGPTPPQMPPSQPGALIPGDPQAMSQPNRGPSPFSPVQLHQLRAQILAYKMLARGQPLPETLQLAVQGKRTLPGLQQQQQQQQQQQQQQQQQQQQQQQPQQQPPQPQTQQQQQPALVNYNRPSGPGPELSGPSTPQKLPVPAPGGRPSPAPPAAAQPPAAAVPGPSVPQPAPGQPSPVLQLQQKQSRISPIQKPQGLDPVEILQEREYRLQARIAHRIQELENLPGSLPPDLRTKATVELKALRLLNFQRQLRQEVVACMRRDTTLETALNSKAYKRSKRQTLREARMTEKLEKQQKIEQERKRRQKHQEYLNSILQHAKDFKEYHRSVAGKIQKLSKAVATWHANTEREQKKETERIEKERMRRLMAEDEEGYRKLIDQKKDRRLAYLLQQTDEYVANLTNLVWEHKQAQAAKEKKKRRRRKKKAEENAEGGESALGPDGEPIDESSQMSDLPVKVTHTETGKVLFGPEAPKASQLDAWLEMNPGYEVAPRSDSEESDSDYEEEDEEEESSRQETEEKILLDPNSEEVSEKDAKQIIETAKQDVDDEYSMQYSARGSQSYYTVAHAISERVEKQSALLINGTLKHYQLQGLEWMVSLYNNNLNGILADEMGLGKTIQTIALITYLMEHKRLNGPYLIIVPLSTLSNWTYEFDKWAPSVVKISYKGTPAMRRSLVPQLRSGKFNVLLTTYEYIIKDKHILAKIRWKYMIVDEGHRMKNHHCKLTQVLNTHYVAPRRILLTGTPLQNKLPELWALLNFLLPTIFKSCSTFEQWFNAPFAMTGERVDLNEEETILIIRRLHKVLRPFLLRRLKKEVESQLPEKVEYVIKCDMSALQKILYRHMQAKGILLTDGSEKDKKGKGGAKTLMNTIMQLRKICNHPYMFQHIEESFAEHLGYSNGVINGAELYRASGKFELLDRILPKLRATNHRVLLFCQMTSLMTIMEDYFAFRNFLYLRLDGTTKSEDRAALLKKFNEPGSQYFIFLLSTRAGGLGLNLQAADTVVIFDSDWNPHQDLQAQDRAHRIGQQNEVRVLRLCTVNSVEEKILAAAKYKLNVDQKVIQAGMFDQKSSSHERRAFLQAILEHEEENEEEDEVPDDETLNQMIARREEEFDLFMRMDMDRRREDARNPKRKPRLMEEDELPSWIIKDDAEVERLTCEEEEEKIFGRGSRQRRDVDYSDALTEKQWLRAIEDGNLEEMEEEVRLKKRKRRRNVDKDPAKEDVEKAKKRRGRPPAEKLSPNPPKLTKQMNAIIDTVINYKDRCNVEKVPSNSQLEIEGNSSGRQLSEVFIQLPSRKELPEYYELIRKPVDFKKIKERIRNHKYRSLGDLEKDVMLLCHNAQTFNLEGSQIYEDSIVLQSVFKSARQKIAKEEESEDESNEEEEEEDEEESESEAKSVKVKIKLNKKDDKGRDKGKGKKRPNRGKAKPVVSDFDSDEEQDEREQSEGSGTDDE
Sequence of Glucose-6-phosphate 1-dehydrogenase (P11413 whole entry): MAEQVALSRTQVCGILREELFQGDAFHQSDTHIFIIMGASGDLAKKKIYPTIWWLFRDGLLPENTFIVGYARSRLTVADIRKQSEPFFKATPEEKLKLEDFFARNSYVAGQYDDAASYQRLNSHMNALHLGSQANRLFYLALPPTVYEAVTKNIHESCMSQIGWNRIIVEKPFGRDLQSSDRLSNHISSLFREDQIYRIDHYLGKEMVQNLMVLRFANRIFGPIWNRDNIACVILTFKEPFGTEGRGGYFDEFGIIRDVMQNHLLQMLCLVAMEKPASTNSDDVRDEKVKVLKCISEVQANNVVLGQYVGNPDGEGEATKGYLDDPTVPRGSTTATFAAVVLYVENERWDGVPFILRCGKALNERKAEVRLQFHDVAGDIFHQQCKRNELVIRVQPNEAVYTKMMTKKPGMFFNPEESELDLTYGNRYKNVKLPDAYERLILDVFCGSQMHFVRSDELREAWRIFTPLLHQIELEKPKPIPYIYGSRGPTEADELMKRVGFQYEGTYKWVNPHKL
Sequence of Melanocortin receptor 4 (P32245 whole entry): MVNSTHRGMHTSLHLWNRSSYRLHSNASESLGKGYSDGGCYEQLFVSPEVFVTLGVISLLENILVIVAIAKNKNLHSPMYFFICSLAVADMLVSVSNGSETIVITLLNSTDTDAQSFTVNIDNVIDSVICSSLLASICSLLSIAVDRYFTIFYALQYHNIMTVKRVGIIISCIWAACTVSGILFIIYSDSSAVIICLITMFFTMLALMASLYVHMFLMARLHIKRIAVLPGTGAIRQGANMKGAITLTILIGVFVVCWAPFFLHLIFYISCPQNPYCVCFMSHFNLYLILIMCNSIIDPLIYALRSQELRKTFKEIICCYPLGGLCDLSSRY

Turning to `CC(=O)Nc1ccc2sn(-c3ccccc3)c(=O)c2c1`, the EC50 in assay [1] is > 104 µM (inactive); in assay [2], > 91.2 µM (inactive); in assay [6] it was > 91.2 µM (inactive). The IC50 in assay [3] is 6.19 µM (active); at Hexokinase it was 6.31 µM (active); in assay [4], 53.3 µM (active); in assay [5], 12.1 µM (active); on Beta Lactamase, 23.4 µM (inactive).

With `Cc1ccc(NC(=O)c2ccc([N+](=O)[O-])o2)cc1C(F)(F)F`, the values for the IC50 in the assay with Jurkat, in the assay with HEK293 [7] and in the assay on HEK293 [8] were 0.45 µM (active), 60 µM (inactive) and 68.5 µM (inactive), respectively.

On to `O=C(O)C1C2CCC(C2)C1C(=O)NCCc1cccc(Cl)c1` (stereo not drawn), for which the results for the EC50 (in “cells [9]”; in [10]) were > 29.9 µM (inactive) and 2.58 µM (active), respectively. Also, the IC50 (in [11]; in the assay “cells [12]”) was > 29.9 µM (inactive) throughout.

In the case of `CC(=O)Nc1cc(-c2ccc(N(C)C)cc2)cn2c(-c3ccc(F)c(Cl)c3)cnc12`, the EC50 at Melanocortin receptor 4 is 3.99 µM (active).

Take `C[C@H](CO)N1C[C@H](C)[C@H](CN(C)C(=O)c2ccc3c(c2)OCO3)Oc2cc(C#Cc3ccccc3F)ccc2S1(=O)=O`: the AC50 in assay [13] is 23.7 µM (active); in assay [14], 36.6 µM (active); in assay [15], 20.8 µM (active).

Take `COc1ccc(NC(=O)N[C@H]2CC[C@@H](CCn3cc(C4(O)CCCC4)nn3)O[C@@H]2CO)cc1`: the AC50 in the assay with Vero was 36.7 µM (active).

As for `O=C(N/N=C\c1ccc(OC(=O)c2cccs2)cc1)c1ccc(Cl)cc1`, the IC50 was 2.16 µM (active) in assay [16], 4.51 µM (active) in assay [17] and 11.4 µM (active) in assay [18].

What is called EC50 is the midpoint of the concentration-response curve. A word on the AC50: it is the concentration at which the activity in the assay is half-maximal.
